According to publication PMC5517562, “Design and discovery of novel monastrol-1,3,5-triazines as potent anti-breast cancer agent via attenuating Epidermal Growth Factor Receptor tyrosine kinase” (Scientific Reports, 2017):

Key:
WT EGFR = system: WT EGFR; parameters: method as in PMID 22227214; settings: cited from earlier work
mutant EGFRT790M/L858R = system: mutant EGFRT790M/L858R; parameters: method as in PMID 22227214; settings: cited from earlier work
[1] = system: HepG2 (Hepatocellular carcinoma); test: MTT in vitro cytotoxicity assay, HepG2; format: cell-based, human; settings: NA: Not active; for IC50: Homo sapiens
Description: (§1) The synthesized compounds were evaluated for in-vitro cytotoxic activity against various cell lines such as HeLa (cervical cancer), MCF-7 (breast cancer), HL-60 (Human promyelocytic leukemia), HepG2 (Hepatocellular carcinoma) and MCF 12A (normal epithelial cell) by the MTT assay method. […] The relationship between surviving fraction and drug concentration was plotted to obtain the survival curve of all the cancer cell lines HeLa, MCF-7, HL-60 and HepG2. The response parameter calculated was the IC50 values, which responds to the concentration required for 50% inhibition of cell viability. The in-vitro cytotoxic activity of the synthesized compounds is summarized Table 3.
(§2) The target compounds were subjected to in vitro cytotoxicity bioassay. In vitro cytotoxicity was determined using a standard MTT assay with protocol appropriate for the individual test system[29]–[31]. The four human cancer cell lines HeLa, MCF-7, HL-60, HepG2 and MCF-12A were cultured in the MEM medium supplemented with 10% FBS, 1% glutamine and […] gentamicin sulfate in a CO2 incubator in a humidified atmosphere of 5% CO2 and 95% air. The test compounds were prepared prior to the experiment by dissolving in 0.1% DMSO and diluted with medium. The cells were then exposed to different concentrations of drugs ([…]) in the volume of […]. Cells in the control wells received the same volume of medium containing 0.1% DMSO. After 24 h, the medium was removed and cell cultures were incubated with […] MTT reagent (1 mg/ml) for 5 h at 37 °C. The known number of cells ([…]) was incubated in a 5% CO2 incubator at 37 °C in the presence of different concentrations of test compounds. After 48 h of drug incubation, the MTT solution was added in each well and absorbance was recorded at 540 nm by an ELISA reader. The experiment was performed in triplicate. Cell survival was calculated as the percentage of MTT inhibition as % growth inhibition = 100 − (mean OD of individual test Group/Mean OD of each Control Group) × 100.

MCF-7 (breast cancer) = test: MTT in vitro cytotoxicity assay, MCF-7; format: cell-based, human; settings: Homo sapiens, MCF7
Description: as §1, §2

[2] = system: MCF 12A (normal epithelial breast cell line); test: MTT assay on normal cells, MCF 12A; format: cell-based, human; settings: normal epithelial breast cell MCF 12A; for IC50: Homo sapiens
Description: as §1
The presence of non-halogen substituent along with electron donating substituent seriously jeopardise the anticancer potential. […] To determine the selectivity of these molecules between normal and cancerous cells, the designed compounds were also tested against MCF 12A, a normal epithelial breast cell.
as §2

EGFR-TK = target: T1, EGFR-TK (Homo sapiens, UniProt P00533); test: EGFR tyrosine kinase inhibitory activity (Kinase-Glo Plus luminescence); format: biochemical; settings: for inhibition at 10 µM: read-out: Percent of Inhibition, EGFR tyrosine kinase
T1 construct: 0.2 mg/mL Poly (Glu, Tyr) substrate, 10 mM ATP and EGFR
T1 sequence (P00533 25-1210): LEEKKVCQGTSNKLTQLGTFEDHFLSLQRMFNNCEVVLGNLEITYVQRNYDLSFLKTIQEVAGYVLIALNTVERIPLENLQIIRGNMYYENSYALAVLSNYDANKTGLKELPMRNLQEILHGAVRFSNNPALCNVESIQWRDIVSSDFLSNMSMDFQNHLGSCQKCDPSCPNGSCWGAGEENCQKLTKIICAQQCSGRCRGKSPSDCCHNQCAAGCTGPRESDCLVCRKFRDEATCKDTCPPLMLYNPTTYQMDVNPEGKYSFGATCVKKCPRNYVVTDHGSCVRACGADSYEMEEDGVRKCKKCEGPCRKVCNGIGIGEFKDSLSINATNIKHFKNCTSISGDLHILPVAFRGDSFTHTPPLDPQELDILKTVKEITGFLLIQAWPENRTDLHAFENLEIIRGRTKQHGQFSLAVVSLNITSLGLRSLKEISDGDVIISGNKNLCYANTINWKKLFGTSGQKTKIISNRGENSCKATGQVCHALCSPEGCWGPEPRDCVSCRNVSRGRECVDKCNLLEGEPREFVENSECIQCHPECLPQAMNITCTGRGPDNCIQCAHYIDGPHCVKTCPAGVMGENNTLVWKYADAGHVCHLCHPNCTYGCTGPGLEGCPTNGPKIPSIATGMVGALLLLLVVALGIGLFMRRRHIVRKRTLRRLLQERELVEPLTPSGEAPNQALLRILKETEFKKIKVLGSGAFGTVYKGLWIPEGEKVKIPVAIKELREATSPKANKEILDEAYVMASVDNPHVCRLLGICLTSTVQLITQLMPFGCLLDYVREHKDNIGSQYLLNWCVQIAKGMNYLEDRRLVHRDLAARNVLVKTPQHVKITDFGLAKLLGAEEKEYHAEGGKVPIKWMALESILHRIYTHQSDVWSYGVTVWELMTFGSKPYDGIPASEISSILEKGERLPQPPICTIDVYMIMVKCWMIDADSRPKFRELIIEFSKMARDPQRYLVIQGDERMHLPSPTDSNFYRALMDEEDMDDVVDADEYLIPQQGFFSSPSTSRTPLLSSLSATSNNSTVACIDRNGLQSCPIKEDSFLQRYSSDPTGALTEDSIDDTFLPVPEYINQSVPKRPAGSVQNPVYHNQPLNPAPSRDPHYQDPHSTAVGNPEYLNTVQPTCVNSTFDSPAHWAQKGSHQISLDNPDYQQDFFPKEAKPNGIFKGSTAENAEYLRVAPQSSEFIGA
Description: Kinase activity was determined using Kinase-Glo Plus luminescence kinase assay kit, by quantitating the amount of ATP remaining in the solution of kinase reaction. The luminescent signal is correlated with the residual amount present and it was inversely related with kinase activity. The tested compounds were diluted to 100 mM in 10% DMSO, then […] of the dilution was added to a 50 mL reaction. All of the enzymatic reactions were performed at 30 °C for 40 min, 50 mL of reaction mixture contains 10 mM MgCl2, 40 mM Tris, pH 7.4, 0.1 mg/mL BSA, 0.2 mg/mL Poly (Glu, Tyr) substrate, 10 mM ATP and EGFR. Incubate the plate for 5 min at r.t. then add 50 mL of Kinase-GloPlus Luminescence kinase assay to each reaction. ADP-Glo assay kit is the protein kinase assays used to determine IC50 values in which ADP generation was measured as it leads to an increase in luminescence signal. The reaction mixture was incubated in a 96-well plate at 30 °C for 30 min, after the incubation period add 25 mL of ADP-Glo reagent to terminate the assay. Shake the 96-well plate for 30 min at ambient temperature then incubate it, then add 50 mL of kinase detection reagent. Read the 96-well plate using the ADP-Glo Luminescence reader. All the assay components were added to the blank control except the substrate. By removing the blank control value you can obtain the corrected activity for each protein kinase target.

HeLa (cervical cancer) = test: MTT in vitro cytotoxicity assay, HeLa; format: cell-based, human; settings: Homo sapiens
Description: as §1, §2

[3] = system: HL-60 (Human promyelocytic leukemia); test: MTT in vitro cytotoxicity assay, HL-60; format: cell-based; settings: Homo sapiens
Description: as §1, §2

NCIH1975 = system: NCIH1975; parameters: method as in PMID 22227214; settings: read-out: IC50 antiproliferative activity NCIH1975; cited from earlier work
A431 = system: A431; parameters: method as in PMID 22227214; settings: read-out: IC50 antiproliferative activity A431; cited from earlier work
A549 = system: A549; parameters: method as in PMID 22227214; settings: read-out: IC50 antiproliferative activity A549; cited from earlier work

Row | melting point [°C] | inhibition at 10 µM (EGFR-TK; at 10 µM) [%] | SMILES | IC50 (WT EGFR) [µM] | IC50 (mutant EGFRT790M/L858R) [µM] | IC50 [1] [µM] | IC50 (MCF-7 (breast cancer)) [µM] | IC50 MCF 12A [2] | IC50 (HeLa (cervical cancer)) [µM] | IC50 [3] [µM] | IC50 [2] [µM] | %i (EGFR-TK; EGFR-TK percent inhibition as repeated in docking Table 5) [%] | Percent of Inhibition, EGFR tyrosine kinase (EGFR-TK; at 10 µM) [%] | IC50 HepG2 [1] | IC50 (NCIH1975) [µM] | IC50 (A431) [µM] | IC50 (A549) [µM]
1 |  |  | CNc1nc(N/N=C/c2ccc(O)cc2)nc(Nc2ccccc2)n1 [1f] | > 100 | 30.7 |  |  |  |  |  |  |  |  |  |  |  | 
2 | 91 to 93 | 81.4 | CCOC(=O)C1=C(C)N(c2nc(Nc3ccccc3Cl)nc(Nc3ccccc3Cl)n2)C(=S)NC1c1ccc(OC)cc1 (stereo not shown) [7f, Ethyl 1-(4,6-bis((2-chlorophenyl)amino)-1,3,5-triazin-2-yl)-4-(4-methoxyphenyl)-6-methyl-2-thioxo-1,2,3,4-tetrahydropyrimidine-5-carboxylate] |  |  | 46.5 ± 0.36 | 64 ± 0.38 |  | 55.4 ± 0.12 | 47 ± 0.54 | 82.14 ± 0.21 |  |  |  |  |  | 
3 | 153 to 155 | 88.5 | CCOC(=O)C1=C(C)N(c2nc(Nc3cccc(Cl)c3)nc(Nc3cccc(Cl)c3)n2)C(=S)NC1c1ccc(F)cc1 (stereo not shown) [7m, Ethyl 1-(4,6-bis((3-chlorophenyl)amino)-1,3,5-triazin-2-yl)-4-(4-fluorophenyl)-6-methyl-2-thioxo-1,2,3,4-tetrahydropyrimidine-5-carboxylate] |  |  | 39.3 ± 0.12 | 53.8 ± 0.28 |  | 42.1 ± 0.34 | 36.5 ± 0.48 | 73.56 ± 0.4 |  |  |  |  |  | 
4 | 225 to 227 | 52.4 | CCOC(=O)C1=C(C)N(c2nc(Nc3ccccc3)nc(Nc3ccccc3)n2)C(=S)NC1c1ccccc1 (stereo not shown) [7a, Ethyl 1-(4,6-bis(phenylamino)-1,3,5-triazin-2-yl)-6-methyl-4-phenyl-2-thioxo-1,2,3,4-tetrahydropyrimidine-5-carboxylate] |  |  |  | 87.4 ± 0.76 | non-toxic | 96.6 ± 0.45 | 83.7 ± 0.27 |  |  |  | inactive |  |  | 
5 | 112 to 114 | 82.4 | CCOC(=O)C1=C(C)N(c2nc(Nc3ccc(Cl)cc3)nc(Nc3ccc(Cl)cc3)n2)C(=S)NC1c1ccccc1Cl (stereo not shown) [7j, Ethyl 1-(4,6-bis((4-chlorophenyl)amino)-1,3,5-triazin-2-yl)-4-(2-chlorophenyl)-6-methyl-2-thioxo-1,2,3,4-tetrahydropyrimidine-5-carboxylate] |  |  | 38.7 ± 0.32 | 57 ± 0.47 |  | 46.2 ± 0.56 | 39.6 ± 0.78 | 69.13 ± 0.62 |  |  |  |  |  | 
6 |  |  | CC(C)Nc1nc(N/N=C/c2cc(Br)c(O)c(Br)c2O)nc(Nc2ccc(F)cc2)n1 [1a] | 25.9 | 6.5 |  |  |  |  |  |  |  |  |  | 10.5 ± 0.9 | 8 ± 1.6 | 7.7 ± 1.3

Row | SMILES | melting point [°C] | inhibition at 10 µM (EGFR-TK; at 10 µM) [%] | IC50 (WT EGFR) [µM] | IC50 (mutant EGFRT790M/L858R) [µM] | IC50 [1] [µM] | IC50 (MCF-7 (breast cancer)) [µM] | IC50 MCF 12A [2] | IC50 (HeLa (cervical cancer)) [µM] | IC50 [3] [µM] | IC50 [2] [µM] | %i (EGFR-TK; EGFR-TK percent inhibition as repeated in docking Table 5) [%] | Percent of Inhibition, EGFR tyrosine kinase (EGFR-TK; at 10 µM) [%] | IC50 HepG2 [1] | IC50 (NCIH1975) [µM] | IC50 (A431) [µM] | IC50 (A549) [µM]
7 | CCOC(=O)C1=C(C)N(c2nc(Nc3ccc([N+](=O)[O-])cc3)nc(Nc3ccc([N+](=O)[O-])cc3)n2)C(=S)NC1c1ccc(C)cc1 (stereo not shown) [7b, Ethyl 1-(4,6-bis((4-nitrophenyl)amino)-1,3,5-triazin-2-yl)-6-methyl-2-thioxo-4-(p-tolyl)-1,2,3,4-tetrahydropyrimidine-5-carboxylate] | 183 to 185 | 56.7 |  |  | 79.3 ± 0.75 | 76.5 ± 0.54 | non-toxic | 81.8 ± 0.34 | 77.3 ± 0.41 |  |  |  |  |  |  | 
8 | CCOC(=O)C1=C(C)N(c2nc(Nc3ccc([N+](=O)[O-])cc3)nc(Nc3ccc([N+](=O)[O-])cc3)n2)C(=S)NC1c1ccc(Cl)cc1 (stereo not shown) [7h, Ethyl 1-(4,6-bis((4-nitrophenyl)amino)-1,3,5-triazin-2-yl)-4-(4-chlorophenyl)-6-methyl-2-thioxo-1,2,3,4-tetrahydropyrimidine-5-carboxylate] | 146 to 147 | ~69 |  |  | 69.6 ± 0.38 | 71.5 ± 0.46 | non-toxic | 73.4 ± 0.65 | 61.4 ± 0.36 |  | 69.1 | 69.1 |  |  |  | 
9 | CCOC(=O)C1=C(C)N(c2nc(Nc3ccccc3[N+](=O)[O-])nc(Nc3ccccc3[N+](=O)[O-])n2)C(=S)NC1c1ccc(C)cc1 (stereo not shown) [7c, Ethyl 1-(4,6-bis((2-nitrophenyl)amino)-1,3,5-triazin-2-yl)-6-methyl-2-thioxo-4-(p-tolyl)-1,2,3,4-tetrahydropyrimidine-5-carboxylate] | 232 to 234 | 53.6 |  |  | 86.4 ± 0.67 | 72.2 ± 0.61 | non-toxic | 83.5 ± 0.22 | 70.5 ± 0.49 |  |  |  |  |  |  | 
